The first assay relates to Pseudoperonospora cubensis. Nature of the assay: Fungicidal activity against Pseudoperonospora cubensis in cucumber plant assessed as cucumber downy mildew disease control at 7.8 ppm at 22 +/- 2 degC, 98% RH measured after 10 days. The class given is functional.
Regarding `CO/N=C(\C#N)C(=O)NC1=NOC(C)(C)C1`, the Activity stood at 70%.

For a further assay, the system named is Pseudoperonospora cubensis. Nature of the assay: Fungicidal activity against Pseudoperonospora cubensis in cucumber plant assessed as cucumber downy mildew disease control at 31.3 ppm at 22 +/- 2 degC, 98% RH measured after 10 days. The class given is functional.
As to `CO/N=C(\C#N)C(=O)NC1=NOC(C)C1` (stereo unspecified), the Activity was 70%. As for `CCO/N=C(\C#N)C(=O)NC1=NOC(C)(C)C1`, the Activity is recorded as 70%. Same read-out and setting: under `CC(C)O/N=C(\C#N)C(=O)NC1=NOC(C)(C)C1` stands 70%.

On to `C=CC1CC(NC(=O)/C(C#N)=N/OC)=NO1` (stereo unspecified), for which the Activity came to 70%.

As to `CO/N=C(\C#N)C(=O)NC1=NOC(CCl)C1` (stereo unspecified), the Activity worked out at 70%. The same measure, in the same setting: in the case of `CO/N=C(\C#N)C(=O)NC1=NOC(C)(CO)C1` (stereo unspecified) it was 70%; in that of `CO/N=C(\C#N)C(=O)NC1=NOC(C)(CCl)C1` (stereo unspecified), 70%.

For a further assay, the system named is Pseudoperonospora cubensis. In words: Fungicidal activity against Pseudoperonospora cubensis in cucumber plant assessed as cucumber downy mildew disease control at 500 ppm at 22 +/- 2 degC, 98% RH measured after 10 days. The class given is functional.
Consider `CO/N=C(\C#N)C(=O)NC1=NOC(c2ccccc2)C1` (stereo unspecified), for which the Activity is listed as below 70%.

Take `CO/N=C(\C#N)C(=O)NC1=NOC(C)(C)C1C` (stereo unspecified): the Activity was determined as 70%. For `CC1(C)CC(NC(=O)/C(C#N)=N/OCC#N)=NO1`, the Activity is reported as below 70%. Same read-out and setting: in the case of `CC1(C)CC(NC(=O)/C(C#N)=N/OCc2ccccc2)=NO1` it was below 70%; in that of `CO/N=C(\C#N)C(=O)N(C)C1=NOC(C)(C)C1`, below 70%; in that of `CCN(C(=O)/C(C#N)=N/OC)C1=NOC(C)(C)C1`, below 70%. For the molecule `CO/N=C(\C#N)C(=O)N(CC(=O)OC)C1=NOC(C)(C)C1`, the Activity is below 70%.

Take `COCN(C(=O)/C(C#N)=N/OC)C1=NOC(C)(C)C1`: the Activity was below 70%. Take `CO/N=C(\C#N)C(=O)Nc1cc(C)cs1`: the Activity is below 70%. Turning to `CO/N=C(\C#N)C(=O)Nc1nnc(C)s1`, the Activity is reported as below 70%. For `CCOC(=O)NNC(=O)NC(=O)/C(C#N)=N/OC`, the Activity is given as below 70%.

On to `CO/N=C(\C#N)C(=O)NC(=O)NNC(=O)c1ccccc1`, for which the Activity is recorded as below 70%.

Take `CO/N=C(\C#N)C(=O)NC(=O)NNS(=O)(=O)c1ccccc1`: the Activity is below 70%. Take `CO/N=C(\C#N)C(=O)NC(=O)OC(C)(C)C(=O)OC`: the Activity is 70%.

Turning to `CO/N=C(\C#N)C(=O)NC(=O)OCC(C)(C)C(=O)OC`, the Activity is given as below 70%.

For `CO/N=C(\C#N)C(=O)NC(=O)OCC(=O)N(C)c1ccccc1`, the Activity was below 70%.

With `CO/N=C(\C#N)C(=O)NC(=O)ON=C(C)C`, the Activity worked out at 70%. Regarding `CO/N=C(\C#N)C(=O)NC1=NOC(C2CCCCC2)C1` (stereo unspecified), the Activity is given as below 70%.

Take `CO/N=C(\C#N)C(=O)NC1=NOC(Cc2ccccc2)C1` (stereo unspecified): the Activity is on record as below 70%. As for `C=CC1CC(NC(=O)/C(C#N)=N/OC)=NO1` (stereo unspecified), the Activity was below 70%. For `CCC1ON=C(NC(=O)/C(C#N)=N/OC)C1CC` (stereo unspecified), the Activity stood at 70%.

A further assay has as its system Pseudoperonospora cubensis. Nature of the assay: Fungicidal activity against Pseudoperonospora cubensis in cucumber plant assessed as cucumber downy mildew disease control at 125 ppm at 22 +/- 2 degC, 98% RH measured after 10 days. The class given is functional.
For the molecule `CO/N=C(\C#N)C(=O)NC1=NOC(CCl)(CCl)C1`, the Activity worked out at 70%. Regarding `C=CCO/N=C(\C#N)C(=O)NC1=NOC(C)(C)C1`, the Activity came out at 70%. For `COCO/N=C(\C#N)C(=O)NC1=NOC(C)(C)C1`, the Activity was 70%.

As for `CO/N=C(\C#N)C(=O)Nc1cc(C)on1`, the Activity worked out at 70%. As for `CO/N=C(\C#N)C(=O)NC(=O)OC(C)C`, the Activity is 70%. With `CO/N=C(\C#N)C(=O)NC1=NOCC1`, the Activity is recorded as 70%. On to `CO/N=C(\C#N)C(=O)NC1=NOCC1C` (stereo unspecified), for which the Activity turned out to be 70%. Take `CCC1CC(NC(=O)/C(C#N)=N/OC)=NO1` (stereo unspecified): the Activity came to 70%. Take `CO/N=C(\C#N)C(=O)NC1=NOC(C(C)C)C1` (stereo unspecified): the Activity was 70%. Consider `CCCCC1CC(NC(=O)/C(C#N)=N/OC)=NO1` (stereo unspecified), for which the Activity came to 70%. The same measure, in the same setting: in the case of `CO/N=C(\C#N)C(=O)NC1=NOC(CO)C1` (stereo unspecified) it was 70%; in that of `CO/N=C(\C#N)C(=O)NC1=NOC(C)C1C` (stereo unspecified), 70%. With `CCC1(CC)CC(NC(=O)/C(C#N)=N/OC)=NO1`, the Activity stood at 70%. For the molecule `CCC1(C)CC(NC(=O)/C(C#N)=N/OC)=NO1` (stereo unspecified), the Activity is on record as 70%.

Turning to `CCCC1(C)CC(NC(=O)/C(C#N)=N/OC)=NO1` (stereo unspecified), the Activity came out at 70%. As for `CO/N=C(\C#N)C(=O)NC1=NOC(C(C)(C)C)C1` (stereo unspecified), the Activity was determined as 70%. On to `CO/N=C(\C#N)C(=O)NC(=O)OC(C)(C)C`, for which the Activity was 70%.
